# In patent publication US20260200987A1, “PEPTIDE FOR CARTILAGE REGENERATION, AND USES THEREOF” (CAREGEN CO., LTD., priority 2022, published 2026):
# Ends that are not written are not given here.
# Key:
# [1] = system: human adipose-derived mesenchymal stem cells (AD-MSC); experiment: SRB staining, cell morphology changes; format: cell-based; conditions: peptide at different concentrations, FIG. 1 and FIG. 2
# Experimental: Additionally, for SRB staining, after suctioning the medium from the plate, 60 μL of 3.7% formalin was added to the 96-well plate to be stained and fixed for 1 minute. After suctioning 3.7% formalin, 70 μL of SRB staining solution (sulforhodamine B sodium salt (sigma, S9012): 0.2 g in 100 mL DDW) was added and stained. The plate was covered with aluminum foil, blocked from light, and incubated overnight at room temperature. After washing with 100 μL of 1% acetic acid using a multi-pipette, it was dried and observed under a microscope.
# [2] = system: human adipose-derived mesenchymal stem cells (AD-MSC); experiment: CCK-8 assay, cytotoxicity; format: cell-based; conditions: after 7 days, peptide at different concentrations, FIG. 3 and FIG. 4
# Experimental: Specifically, AD-MSC cells were seeded in 96-well plates at a density of 1.5×10^3 cells/well and cultured in Dulbecco's Modified Eagle's Medium (DMEM) supplemented with 10% FBS for 24 hours. Then, the medium was replaced with DMEM medium supplemented with 5% FBS, and Peptide-1 or Peptide-2 was treated at different concentrations, respectively. Subsequently, the medium was replaced every 3 days and Peptide-1 or Peptide-2 was treated at different concentrations, respectively. To confirm CCK-8 activity, after 7 days, CCK-8 (Dojindo, CCK-8 kit) solution was added at 1/10 volume of the culture medium, and incubated for 2 hours. The culture medium was sampled and CCK-8 activity was confirmed at a wavelength of 450 nm using a microplate reader.
Sequence,change in cell morphology in SRB staining [1],toxicity toward adipose-derived mesenchymal stem cells (CCK-8 activity) [2]
"FCRPRNDFF [Peptide-2, FCRPRNDFF]",did not show any change in cell morphology,did not exhibit toxicity
"RIAFLWVRIK [Peptide-1, RIAFLWVRIK]",did not show any change in cell morphology,did not exhibit toxicity
